For one experiment, the target named is Carbonic anhydrase 9 (Homo sapiens, UniProt Q16790). Briefly: Inhibition of human CA9 by CO2 hydration activity based stopped flow assay.
The subject of experiment [1] is Oryctolagus cuniculus. As to the kind of experiment: Antiglaucoma activity in New Zealand rabbit model of carbomer-induced ocular hypertension assessed as reduction in intraocular pressure dosed with 50 uL of 2% compound solution and measured after 3 to 4 hrs. The format is functional, Eye.
Experiment [2] has as its system Oryctolagus cuniculus. As to the kind of experiment: Antiglaucoma activity in New Zealand rabbit model of hypertonic saline-induced ocular hypertension assessed as reduction in intraocular pressure dosed with 50 uL of 2% compound solution and measured after 1 to 2 hrs. The experiment is classed as functional, Eye.
The test system of experiment [3] is Oryctolagus cuniculus. Briefly: Antiglaucoma activity in New Zealand rabbit model of hypertonic saline-induced ocular hypertension assessed as reduction in intraocular pressure dosed with 50 uL of 2% compound solution and measured after 2 hrs. The format is functional, Eye.

From ChEMBL document CHEMBL3352431, “Furazan and furoxan sulfonamides are strong α-carbonic anhydrase inhibitors and potential antiglaucoma agents” (Bioorg Med Chem, 2014) come the findings set out here.

Structures are written as SMILES.

By Ki is commonly meant a dissociation constant, usually derived from enzyme kinetics or from competition with a known ligand. A lower Ki goes with a stronger hold on the target.

As to `NS(=O)(=O)c1no[n+]([O-])c1-c1ccccc1`, the Ki on Carbonic anhydrase 9 is 7.1 nM. That is a single-digit nanomolar value.
Consider `NS(=O)(=O)c1c(-c2ccccc2)no[n+]1[O-]`, for which the affinity at Carbonic anhydrase 9, expressed as Ki, was 7.4 nM.
For `Cc1nonc1S(N)(=O)=O`, the Ki at Carbonic anhydrase 9 is 7.9 nM. Besides, the Activity with Oryctolagus cuniculus [1] stood at 10 mmHg.
For `Cc1c(S(N)(=O)=O)no[n+]1[O-]` the same measures were 7.3 nM and 10 mmHg.
`Cc1no[n+]([O-])c1S(N)(=O)=O` came in with a Ki on Carbonic anhydrase 9 of 6.5 nM. Also, the Activity in the experiment on Oryctolagus cuniculus [1] turned out to be 10 mmHg.
On Carbonic anhydrase 9, `NS(=O)(=O)c1nonc1-c1ccccc1` returned a Ki of 6.3 nM.
`COc1nonc1S(N)(=O)=O` came in with a Ki at Carbonic anhydrase 9 of 5.8 nM.
For `CCOc1nonc1S(N)(=O)=O`, the Ki at Carbonic anhydrase 9 amounted to 6.6 nM.
For `CCCCOc1nonc1S(N)(=O)=O`, affinity on Carbonic anhydrase 9 was put at a Ki of 4.8 nM.
On to `CC(C)COc1nonc1S(N)(=O)=O`, for which the affinity on Carbonic anhydrase 9, expressed as Ki, was 3.9 nM.
On Carbonic anhydrase 9, `NS(=O)(=O)c1nonc1OCc1ccccc1` came in with a Ki of 5.8 nM.
On Carbonic anhydrase 9, `NS(=O)(=O)c1nonc1Oc1ccccc1` showed a Ki of 6.3 nM. The Ki values of the last two compounds are within 1.5-fold of each other.
`NS(=O)(=O)c1ccc(-c2nonc2-c2ccccc2)cc1` registered a Ki at Carbonic anhydrase 9 of 62.9 nM.
On Carbonic anhydrase 9, `NS(=O)(=O)c1ccc(-c2no[n+]([O-])c2-c2ccccc2)cc1` registered a Ki of 62.8 nM.
The compound `NS(=O)(=O)c1ccc(-c2c(-c3ccccc3)no[n+]2[O-])cc1` came in with a Ki at Carbonic anhydrase 9 of 58 nM.
As to `NS(=O)(=O)c1ccc(-c2nonc2[N+](=O)[O-])cc1`, affinity on Carbonic anhydrase 9 was put at a Ki of 54.7 nM.
`NS(=O)(=O)c1ccc(-c2c([N+](=O)[O-])no[n+]2[O-])cc1` returned a Ki on Carbonic anhydrase 9 of 54.5 nM.
Turning to `NS(=O)(=O)c1ccc(-c2nonc2Oc2ccccc2)cc1`, affinity on Carbonic anhydrase 9 was put at a Ki of 71.1 nM.
As to `NS(=O)(=O)c1ccc(-c2c(Oc3ccccc3)no[n+]2[O-])cc1`, on Carbonic anhydrase 9, the Ki was 63.9 nM.
Turning to `NS(=O)(=O)c1ccc(-c2nonc2Sc2ccccc2)cc1`, at Carbonic anhydrase 9, the Ki stood at 57.6 nM.
On Carbonic anhydrase 9, `NS(=O)(=O)c1ccc(-c2c(Sc3ccccc3)no[n+]2[O-])cc1` displayed a Ki of 5040 nM.
For the compound `NS(=O)(=O)c1ccc(-c2nonc2S(=O)(=O)c2ccccc2)cc1`, the Ki on Carbonic anhydrase 9 turned out to be 63.6 nM.
Compound `NS(=O)(=O)c1ccc(-c2c(S(=O)(=O)c3ccccc3)no[n+]2[O-])cc1` registered a Ki at Carbonic anhydrase 9 of 34.5 nM.
Turning to `NS(=O)(=O)c1ccc(OCc2nonc2-c2ccccc2)cc1`, on Carbonic anhydrase 9, the Ki was found to be 110 nM. Compared with the last compound, the Ki is about 3.2-fold higher.
Same read-out and setting: to `NS(=O)(=O)c1ccc(OCc2no[n+]([O-])c2-c2ccccc2)cc1` belongs 47.9 nM.
Compound `NC(=O)c1nonc1COc1ccc(S(N)(=O)=O)cc1` showed a Ki at Carbonic anhydrase 9 of 49.8 nM. Also, the Activity with Oryctolagus cuniculus [2] came to 5 mmHg.
`NC(=O)c1c(COc2ccc(S(N)(=O)=O)cc2)no[n+]1[O-]` showed a Ki at Carbonic anhydrase 9 of 32.3 nM. Further, the Activity with Oryctolagus cuniculus [2] is recorded as 5 mmHg.
`N#Cc1nonc1COc1ccc(S(N)(=O)=O)cc1`: on Carbonic anhydrase 9, the inhibition constant Ki worked out at 10.8 nM. Besides, the Activity in the experiment with Oryctolagus cuniculus [3] is 8 mmHg.
At Carbonic anhydrase 9, `N#Cc1c(COc2ccc(S(N)(=O)=O)cc2)no[n+]1[O-]` gave a Ki of 11.3 nM. For the same compound, the Activity in the experiment with Oryctolagus cuniculus [3] was 8 mmHg.
`NS(=O)(=O)c1ccc(Oc2nonc2S(=O)(=O)c2ccccc2)cc1` displayed a Ki at Carbonic anhydrase 9 of 7.3 nM.
`NS(=O)(=O)c1ccc(Oc2no[n+]([O-])c2S(=O)(=O)c2ccccc2)cc1` came in with a Ki on Carbonic anhydrase 9 of 6.4 nM.
